# Assay results published in PMC6693780, “Triazoloquinazolines as a new class of potent α-glucosidase inhibitors: in vitro evaluation and docking study” (PLoS ONE, 2019).
# Several values for one entry are separate records, joined by “and”; a condition that tells them apart may be missing. Equal values may be shown once.
# Tested on: α-glucosidase enzyme from Saccharomyces cerevisiae type 1
# Test: α-Glucosidase inhibitory assay (p-NPG substrate, absorbance at 405 nm)
# Assay type: biochemical
# Settings: for inhibition of α-glucosidase (not screened for IC50): screening, concentration not given; for IC50: S. cerevisiae α-glucosidase type 1, p-NPG 2 mM, pH 6.5, 37°C, 30 min, triplicate; for times more potent than acarbose: ratio of IC50 values versus acarbose
# Protocol: For phosphate-buffered saline (PBS), NaH₂PO₄ (1.4 g), NaCl (8 g), KCl (0.2 g), and KH₂PO4 (0.2 g) were dissolved in deionized H2O (1 L) at 20°C. Using NaOH (1M) and HCl (1M), the pH of the solution was adjusted to 6.5 at 20°C. p-Nitrophenyl-α-D-glucopyranoside (2 mM) (p-NPG-substrate) was prepared by dissolving p-NPG (6 mg) in buffer solution (10 mL). α-Glucosidase enzyme Type 1, lyophilized powder (Sigma-Aldrich) from Saccharomyces cerevisiae (a mixture of MAL12 and MAL32) was employed. The enzyme solution was prepared by dissolving 1 mg of in 1000 μL of cold PBS (pH 6.5). Subsequently, 50 μL of α-glucosidase enzyme solution was mixed with cold buffered saline (12 mL) to a concentration of 0.125 unit/mL. For sample screening, a solution of 200 μg/mL concentration was prepared in 100% DMSO, and then subjected to two-fold serial dilution in 5% DMSO in a 96-well microplate to obtain concentrations of 100, 50, 25, 12.5, 6.25, 3.13, and 1.56 μg/mL. The samples were screened using Epoch 2 Microplate Spectrophotometer from BioTek. To each well of the 96-well microplate, 10 μL of DMSO (5%) was added. The stock solution (10 μL) was added to the first well and mixed. Then, 10 μL of sample was withdrawn from the first well and added to the second well, and the process was repeated for two-fold serial dilution. Subsequently, 20 μL of α-glucosidase enzyme, 40 μL of PBS (pH 6.5), and 20 μL of deionized H2O were added to each well of the 96-well microtiter plate with constant stirring. The plate was pre-incubated at 37°C for 10 min, and then 10 μL of p-NPG (2 mM) solution was added to the mixture; its absorbance at 0 min was measured at a wavelength of 405 nm. The reaction mixture was incubated at 37°C for 30 min, and subsequently, its absorbance was measured. […] The experiment was performed in triplicate. According to a previously described methodology, the α-glucosidase inhibitory activity was determined and the inhibition (%) of this activity was calculated using the following equation: %inhibition=(A30min−A0min)control−(A30min−A0min)exp/(A30min−A0min)control×100
structure (smiles),measurement,setting,value
Cc1ccc2c(=O)n(Cc3ccc(C#N)cc3)c3nc(Oc4ccccc4)nn3c2c1 [Compound 10],% inhibition of α-glucosidase,at 0.25 μM,14.83% inhibition at 0.25 μM
Cc1ccc2c(=O)n(Cc3cccc(C#N)c3)c3nc(Oc4ccccc4)nn3c2c1 [Compound 13],% inhibition of α-glucosidase,at 0.21 μM,27.93% inhibition at 0.21 μM
same,inhibition of α-glucosidase (not screened for IC50),,less than 50%
CS(=O)(=O)c1nc2[nH]c(=O)c3ccccc3n2n1 [Compound 2],IC50,,180 µM
CSc1nc2n(Cc3ccc([N+](=O)[O-])cc3)c(=O)c3ccc(C)cc3n2n1 [Compound 6],% inhibition of α-glucosidase,at 0.28 μM,16.24% inhibition at 0.28 μM
same,inhibition of α-glucosidase (not screened for IC50),,less than 50%
CCn1c(=O)c2ccccc2n2nc(S(C)(=O)=O)nc12 [Compound 7],% inhibition of α-glucosidase,at 0.34 μM,19.15% inhibition at 0.34 μM
same,inhibition of α-glucosidase (not screened for IC50),,less than 50%
O=c1c2ccccc2n2nc(Oc3ccccc3)nc2n1CCN1CCCCC1 [Compound 12],IC50,,97.53 ± 0.94 µM
C=CCn1c(=O)c2ccccc2n2nc(SC)nc12 [Compound 5],IC50,,45.6 µM and 72.3 µM
Cc1ccc2c(=O)n(Cc3ccc([N+](=O)[O-])cc3)c3nc(Oc4ccccc4)nn3c2c1 [Compound 11],% inhibition of α-glucosidase,at 0.23 μM,19.52% inhibition at 0.23 μM
O=C1c2ccccc2C(=O)N1CCn1c(=O)c2ccccc2n2nc(Oc3ccccc3)nc12 [Compound 14],IC50,,12.7 ± 1.87 µM
same,times more potent than acarbose,,approximately 12
O=c1c2ccccc2n2nc(Oc3ccccc3)nc2n1Cc1ccc([N+](=O)[O-])cc1 [Compound 9],% inhibition of α-glucosidase,at 0.24 μM,16.89% inhibition at 0.24 μM
CCn1c(=O)c2ccccc2n2nc(SC)nc12 [Compound 4],IC50,,45.6 ± 4.28 µM
same,times more potent than acarbose,,~3
O=c1[nH]c2nc(Oc3ccccc3)nn2c2ccccc12 [Compound 3],IC50,,83.9 ± 5.12 µM
CSc1nc2[nH]c(=O)c3ccccc3n2n1 [Compound 1],IC50,,155.9 ± 1.36 µM
C=CCn1c(=O)c2ccccc2n2nc(S(C)(=O)=O)nc12 [Compound 8],IC50,,28.5 ± 1.22 µM
same,times more potent than acarbose,,~5
